Literature values as cited in patent publication US6629835B2, “Combinations of diterpene triepoxide lactones and ditepene lactones or triterpenes for synergistic inhibition of cyclooxygenase-2” (MetaProteomics, LLC, priority 2000, dated 2003).

Conditions: gastrointestinal disturbance, nausea and vomiting, hypotension, edema; cited from earlier work

CC(C)[C@]12O[C@H]1[C@@H]1O[C@]13[C@]1(O[C@H]1C[C@H]1C4=C(CC[C@@]13C)C(=O)OC4)[C@@H]2O [Triptolide]
Patients showing some type of side effects: Approximately 28%
